In this assay the test system is Mycobacterium tuberculosis (bacteria resistant to quinolone). Nature of the assay: microbe, parasite or virus in culture. It is filed as cell-based.

Molecules are shown by their SMILES. Converted amounts (≈) assume the structure as drawn.

In the case of `COc1c(N2CC3(CC3)[C@](C)(N)C2)c(F)cc2c(=O)c(C(=O)O)cn([C@@H]3C[C@@H]3F)c12` [Hemihydrate, 7-[(7S)-7-Amino-7-methyl-5-azaspiro[2.4]heptan-5-yl]-6-fluoro-1-[(1R,2S)-2-fluorocyclopropyl]-8-methoxy-1,4-dihydro-4-oxoquinoline-3-carboxylic acid hemihydrate], the MIC runs as follows: (strain 1 (QR-3)) 0.125 µg/mL; (strain 2 (QR-6)) 0.5 µg/mL; (strain 3 (QR-1)) 0.25 µg/mL; (strain 4 (QR-9)) 0.25 µg/mL; (strain MDR 1) 0.125 µg/mL; (strain MDR 3) 0.125 µg/mL. Further, the MIC is, setting by setting: (strain MDR 4) 0.25 µg/mL; (strain MDR 5) 0.5 µg/mL; (strain MDR 7) 0.125 µg/mL; (strain MDR 9) 0.125 µg/mL; (strain MDR 12) 0.125 µg/mL; (strain s 1) 1 µg/mL.
With `CO[C@H]1/C=C/O[C@@]2(C)Oc3c(C)c(O)c4c(O)c(c(/C=N/N5CCN(C)CC5)c(O)c4c3C2=O)NC(=O)/C(C)=C\C=C\[C@H](C)[C@H](O)[C@@H](C)[C@@H](O)[C@@H](C)[C@H](OC(C)=O)[C@@H]1C` [RFP, rifampicin], the MIC reads like this: (strain 1 (QR-3)) over 128 µg/mL; (strain 2 (QR-6)) over 128 µg/mL; (strain 3 (QR-1)) 128 µg/mL (≈ 156 µM); (strain 4 (QR-9)) over 128 µg/mL; (strain MDR 1) 16 µg/mL (≈ 19.4 µM); (strain MDR 3) 128 µg/mL (≈ 156 µM). For the same molecule, the MIC was 64 µg/mL (≈ 77.8 µM) (strain MDR 4); 32 µg/mL (≈ 38.9 µM) (strain MDR 5); over 128 µg/mL (strain MDR 7); 128 µg/mL (≈ 156 µM) (strain MDR 9); 128 µg/mL (≈ 156 µM) (strain MDR 12); 16 µg/mL (≈ 19.4 µM) (strain s 1).
